Numbers after ± are expanded uncertainties.
Assay: xn = mol fraction of the nth substance listed
Settings: Gas, Burnett expansion method

**Q.** What does the source list for `C=C(F)C(F)(F)F` [2,3,3,3-tetrafluoro-1-propene] + FCF?
**A.** mass density (353.42 K, 2273.3 kPa, x2 = 0.259): 105.33 ± 1.3 kg/m3; mass density (353.43 K, 588.71 kPa, x2 = 0.874): 12.5 ± 0.15 kg/m3; mass density (353.43 K, 1253 kPa, x2 = 0.874): 28.21 ± 0.32 kg/m3; mass density (353.47 K, 861.21 kPa, x2 = 0.874): 18.78 ± 0.22 kg/m3; mass density (358.31 K, 1928.5 kPa, x2 = 0.698): 54.05 ± 0.5 kg/m3; mass density (358.32 K, 1240.6 kPa, x2 = 0.449): 40.46 ± 0.36 kg/m3; mass density (358.33 K, 586.28 kPa, x2 = 0.449): 17.94 ± 0.16 kg/m3; mass density (358.33 K, 2665 kPa, x2 = 0.698): 81.18 ± 0.81 kg/m3; mass density (358.34 K, 639.13 kPa, x2 = 0.698): 15.95 ± 0.15 kg/m3; mass density (358.34 K, 1357.4 kPa, x2 = 0.698): 35.99 ± 0.32 kg/m3; mass density (358.34 K, 1994 kPa, x2 = 0.119): 94.76 ± 0.63 kg/m3; mass density (358.34 K, 2418.3 kPa, x2 = 0.449): 91.37 ± 0.99 kg/m3; mass density (358.34 K, 3167.9 kPa, x2 = 0.449): 137.24 ± 1.5 kg/m3; mass density (358.34 K, 3474 kPa, x2 = 0.874): 95.77 ± 1.1 kg/m3; mass density (358.35 K, 591.83 kPa, x2 = 0.259): 20.68 ± 0.16 kg/m3; mass density (358.35 K, 858.88 kPa, x2 = 0.449): 26.94 ± 0.24 kg/m3; mass density (358.35 K, 937.43 kPa, x2 = 0.698): 23.96 ± 0.21 kg/m3; mass density (358.35 K, 1463 kPa, x2 = 0.119): 63.06 ± 0.38 kg/m3; mass density (358.35 K, 1759.6 kPa, x2 = 0.449): 60.82 ± 0.58 kg/m3; mass density (358.35 K, 2335.1 kPa, x2 = 0.259): 105.31 ± 1.2 kg/m3; mass density (358.35 K, 2564.1 kPa, x2 = 0.874): 63.62 ± 0.73 kg/m3; mass density (358.35 K, 3529.2 kPa, x2 = 0.698): 121.89 ± 1.7 kg/m3; mass density (358.36 K, 1237.2 kPa, x2 = 0.259): 46.66 ± 0.35 kg/m3; mass density (358.36 K, 1730.8 kPa, x2 = 0.259): 70.06 ± 0.65 kg/m3; mass density (358.36 K, 1828.8 kPa, x2 = 0.874): 42.36 ± 0.49 kg/m3; mass density (358.36 K, 2579.2 kPa, x2 = 0.119): 142.43 ± 1.6 kg/m3; mass density (358.36 K, 2999.2 kPa, x2 = 0.259): 158.78 ± 2.6 kg/m3; mass density (358.36 K, 4405.8 kPa, x2 = 0.698): 183.14 ± 2.5 kg/m3; mass density (358.36 K, 4479.7 kPa, x2 = 0.874): 144.13 ± 2.4 kg/m3; mass density (358.37 K, 719.85 kPa, x2 = 0.119): 27.94 ± 0.15 kg/m3; mass density (358.37 K, 862.94 kPa, x2 = 0.259): 31.07 ± 0.22 kg/m3; mass density (358.37 K, 1037.7 kPa, x2 = 0.119): 41.96 ± 0.24 kg/m3; mass density (358.38 K, 1274.6 kPa, x2 = 0.874): 28.2 ± 0.32 kg/m3; mass density (358.38 K, 3076.3 kPa, x2 = 0.119): 213.92 ± 3.2 kg/m3; mass density (358.39 K, 597.87 kPa, x2 = 0.874): 12.5 ± 0.15 kg/m3; mass density (358.41 K, 875.21 kPa, x2 = 0.874): 18.78 ± 0.22 kg/m3; mass density (363.26 K, 1966.8 kPa, x2 = 0.698): 54.03 ± 0.5 kg/m3; mass density (363.26 K, 2727.3 kPa, x2 = 0.698): 81.16 ± 0.8 kg/m3; mass density (363.27 K, 1262.7 kPa, x2 = 0.449): 40.45 ± 0.36 kg/m3; mass density (363.28 K, 595.28 kPa, x2 = 0.449): 17.93 ± 0.16 kg/m3; mass density (363.28 K, 648.9 kPa, x2 = 0.698): 15.95 ± 0.15 kg/m3; mass density (363.28 K, 2476.7 kPa, x2 = 0.449): 91.33 ± 0.97 kg/m3; mass density (363.28 K, 3265.9 kPa, x2 = 0.449): 137.17 ± 1.6 kg/m3; mass density (363.28 K, 3632.6 kPa, x2 = 0.698): 121.86 ± 1.6 kg/m3; mass density (363.28 K, 4041.7 kPa, x2 = 0.449): 205.81 ± 3.2 kg/m3; mass density (363.29 K, 1381.4 kPa, x2 = 0.698): 35.97 ± 0.32 kg/m3; mass density (363.29 K, 1795.1 kPa, x2 = 0.449): 60.79 ± 0.58 kg/m3; mass density (363.29 K, 1863 kPa, x2 = 0.874): 42.34 ± 0.49 kg/m3; mass density (363.29 K, 2043.8 kPa, x2 = 0.119): 94.71 ± 0.62 kg/m3; mass density (363.29 K, 2396.3 kPa, x2 = 0.259): 105.29 ± 1.3 kg/m3; mass density (363.29 K, 3100.7 kPa, x2 = 0.259): 158.62 ± 2.5 kg/m3; mass density (363.29 K, 3726.8 kPa, x2 = 0.259): 238.72 ± 2.7 kg/m3; mass density (363.29 K, 4575.5 kPa, x2 = 0.698): 183.09 ± 2.5 kg/m3; mass density (363.3 K, 601.42 kPa, x2 = 0.259): 20.68 ± 0.16 kg/m3; mass density (363.3 K, 872.75 kPa, x2 = 0.449): 26.93 ± 0.23 kg/m3; mass density (363.3 K, 1296.1 kPa, x2 = 0.874): 28.19 ± 0.32 kg/m3; mass density (363.3 K, 1768.3 kPa, x2 = 0.259): 70.06 ± 0.64 kg/m3; mass density (363.3 K, 2619.4 kPa, x2 = 0.874): 63.6 ± 0.72 kg/m3; mass density (363.3 K, 2663.3 kPa, x2 = 0.119): 142.34 ± 1.5 kg/m3; mass density (363.3 K, 3565.6 kPa, x2 = 0.874): 95.7 ± 1.1 kg/m3; mass density (363.3 K, 4630.5 kPa, x2 = 0.874): 143.96 ± 2.4 kg/m3; mass density (363.31 K, 731.75 kPa, x2 = 0.119): 27.93 ± 0.15 kg/m3; mass density (363.31 K, 952.86 kPa, x2 = 0.698): 23.95 ± 0.21 kg/m3; mass density (363.31 K, 1056.3 kPa, x2 = 0.119): 41.95 ± 0.24 kg/m3; mass density (363.31 K, 1260.4 kPa, x2 = 0.259): 46.66 ± 0.35 kg/m3; mass density (363.31 K, 3222.3 kPa, x2 = 0.119): 213.79 ± 2.9 kg/m3; mass density (363.32 K, 877.52 kPa, x2 = 0.259): 31.06 ± 0.22 kg/m3; mass density (363.32 K, 1493.6 kPa, x2 = 0.119): 63.03 ± 0.37 kg/m3; mass density (363.33 K, 606.82 kPa, x2 = 0.874): 12.5 ± 0.15 kg/m3; mass density (363.33 K, 888.85 kPa, x2 = 0.874): 18.77 ± 0.21 kg/m3; mass density (368.2 K, 2004.8 kPa, x2 = 0.698): 54.02 ± 0.5 kg/m3; mass density (368.22 K, 604.3 kPa, x2 = 0.449): 17.93 ± 0.16 kg/m3; mass density (368.22 K, 658.7 kPa, x2 = 0.698): 15.94 ± 0.14 kg/m3; mass density (368.22 K, 1285 kPa, x2 = 0.449): 40.44 ± 0.36 kg/m3; mass density (368.22 K, 2534.6 kPa, x2 = 0.449): 91.28 ± 0.96 kg/m3; mass density (368.22 K, 2789.6 kPa, x2 = 0.698): 81.13 ± 0.79 kg/m3; mass density (368.22 K, 3362.6 kPa, x2 = 0.449): 137.11 ± 1.6 kg/m3; mass density (368.22 K, 4205.2 kPa, x2 = 0.449): 205.77 ± 7.4 kg/m3; mass density (368.23 K, 967.59 kPa, x2 = 0.698): 23.94 ± 0.21 kg/m3; mass density (368.23 K, 1830.4 kPa, x2 = 0.449): 60.77 ± 0.57 kg/m3; mass density (368.23 K, 3201.4 kPa, x2 = 0.259): 158.47 ± 2.4 kg/m3; mass density (368.23 K, 3655.1 kPa, x2 = 0.874): 95.63 ± 1.1 kg/m3; mass density (368.23 K, 3734.8 kPa, x2 = 0.698): 121.83 ± 1.6 kg/m3; mass density (368.23 K, 3898.2 kPa, x2 = 0.259): 238.37 ± 3.1 kg/m3; mass density (368.23 K, 4743.3 kPa, x2 = 0.698): 183.03 ± 2.4 kg/m3; mass density (368.24 K, 610.69 kPa, x2 = 0.259): 20.68 ± 0.16 kg/m3; mass density (368.24 K, 1317.5 kPa, x2 = 0.874): 28.18 ± 0.32 kg/m3; mass density (368.24 K, 1405.2 kPa, x2 = 0.698): 35.96 ± 0.32 kg/m3; mass density (368.24 K, 1523.3 kPa, x2 = 0.119): 63.01 ± 0.37 kg/m3; mass density (368.24 K, 1805.3 kPa, x2 = 0.259): 70.05 ± 0.63 kg/m3; mass density (368.24 K, 1897.2 kPa, x2 = 0.874): 42.33 ± 0.49 kg/m3; mass density (368.24 K, 2093.2 kPa, x2 = 0.119): 94.66 ± 0.61 kg/m3; mass density (368.24 K, 2457.3 kPa, x2 = 0.259): 105.26 ± 1.2 kg/m3; mass density (368.24 K, 2674.2 kPa, x2 = 0.874): 63.58 ± 0.72 kg/m3; mass density (368.24 K, 4778.9 kPa, x2 = 0.874): 143.8 ± 2.3 kg/m3; mass density (368.25 K, 743.56 kPa, x2 = 0.119): 27.92 ± 0.15 kg/m3; mass density (368.25 K, 886.98 kPa, x2 = 0.449): 26.92 ± 0.23 kg/m3; mass density (368.25 K, 1075 kPa, x2 = 0.119): 41.94 ± 0.24 kg/m3; mass density (368.25 K, 1283.3 kPa, x2 = 0.259): 46.65 ± 0.34 kg/m3; mass density (368.25 K, 2746.3 kPa, x2 = 0.119): 142.24 ± 1.4 kg/m3; mass density (368.25 K, 4383.2 kPa, x2 = 0.259): 361.18 ± 5.9 kg/m3; mass density (368.26 K, 891.98 kPa, x2 = 0.259): 31.06 ± 0.22 kg/m3; mass density (368.26 K, 3365.6 kPa, x2 = 0.119): 213.65 ± 3.7 kg/m3; mass density (368.27 K, 3774.3 kPa, x2 = 0.119): 320.57 ± 8.2 kg/m3; mass density (368.28 K, 615.74 kPa, x2 = 0.874): 12.49 ± 0.15 kg/m3; mass density (368.29 K, 902.66 kPa, x2 = 0.874): 18.76 ± 0.21 kg/m3; mass density (373.13 K, 2042.5 kPa, x2 = 0.698): 54 ± 0.5 kg/m3; mass density (373.14 K, 613.24 kPa, x2 = 0.449): 17.92 ± 0.16 kg/m3; mass density (373.15 K, 668.24 kPa, x2 = 0.698): 15.94 ± 0.14 kg/m3; mass density (373.15 K, 1428.2 kPa, x2 = 0.698): 35.95 ± 0.32 kg/m3; mass density (373.15 K, 2592.1 kPa, x2 = 0.449): 91.24 ± 0.94 kg/m3; mass density (373.15 K, 4365.9 kPa, x2 = 0.449): 205.72 ± 6.9 kg/m3; mass density (373.15 K, 4909.8 kPa, x2 = 0.698): 182.98 ± 2.3 kg/m3; mass density (373.16 K, 982.7 kPa, x2 = 0.698): 23.94 ± 0.21 kg/m3; mass density (373.16 K, 2850.9 kPa, x2 = 0.698): 81.11 ± 0.79 kg/m3; mass density (373.16 K, 3458.2 kPa, x2 = 0.449): 137.04 ± 1.5 kg/m3; mass density (373.16 K, 3835.9 kPa, x2 = 0.698): 121.81 ± 1.6 kg/m3; mass density (373.17 K, 1307 kPa, x2 = 0.449): 40.43 ± 0.36 kg/m3; mass density (373.17 K, 1552.9 kPa, x2 = 0.119): 62.98 ± 0.37 kg/m3; mass density (373.17 K, 1842 kPa, x2 = 0.259): 70.05 ± 0.62 kg/m3; mass density (373.17 K, 2141.9 kPa, x2 = 0.119): 94.62 ± 0.6 kg/m3; mass density (373.17 K, 3744.3 kPa, x2 = 0.874): 95.56 ± 1.1 kg/m3

Source: the NIST ThermoML archive (doi:10.1016/j.jct.2019.02.028)
